From patent US20260262643A1, “HERBICIDAL BENZOXAZINES” (FMC CORPORATION, priority 2022, published 2026)

Key:
blackgrass [1] = test: Test C preemergence; format: in vivo, Alopecurus myosuroides; settings: for Blackgrass plant response rating: preemergence; for Plant response rating, Blackgrass: Preemergence
Summary of the method: (§1)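 Greenhouse herbicide screen, 10-day duration. Test chemicals in solvent/surfactant blend were sprayed onto soil at sowing (pre) or onto 2–10 cm seedlings at one to two leaves (post); injury scored visually against controls, 0 no effect to 100 complete control.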

corn [2] = test: Test C preemergence; format: in vivo, Zea mays; settings: for Corn plant response rating: preemergence; for Plant response rating, Corn: Preemergence
Summary of the method: as §1

oat, wild [3] = test: Test C postemergence; format: in vivo, Avena fatua; settings: 10 days
Summary of the method: as §1

oat, wild [4] = test: Test C preemergence; format: in vivo, Avena fatua; settings: for Oat, Wild plant response rating: preemergence; for Plant response rating, Oat, Wild: Preemergence
Summary of the method: as §1

soybean [5] = test: Test C preemergence; format: in vivo, Glycine max; settings: for Soybean plant response rating: preemergence; for Plant response rating, Soybean: Preemergence
Summary of the method: as §1

green foxtail [6] = test: Test C postemergence; format: in vivo, Setaria viridis; settings: 10 days
Summary of the method: as §1

kochia [7] = test: Test C postemergence; format: in vivo, Bassia scoparia; settings: 10 days
Summary of the method: as §1

ryegrass, Italian [8] = test: Test C postemergence; format: in vivo, Lolium multiflorum; settings: 10 days
Summary of the method: as §1

barnyardgrass [9] = test: Test C postemergence; format: in vivo, Echinochloa crusgalli; settings: 10 days
Summary of the method: as §1

green foxtail [10] = test: Test C preemergence; format: in vivo, Setaria viridis; settings: for Foxtail, Green plant response rating: preemergence; for Plant response rating, Foxtail, Green: Preemergence
Summary of the method: as §1

sedge, umbrella = test: Test D flooded paddy test; format: in vivo, Cyperus difformis; settings: 250 g ai/ha, applied to paddy water, visual rating after 13 to 14 days, scale 0 to 100 (0 no effect, 100 complete control)
Summary of the method: (§2)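 Seedlings reached the 2-leaf stage, then pots were flooded to 3 cm over the soil surface. Compound was applied into the water, depth was maintained, and plants stayed in the greenhouse 13 to 14 days before visual scoring (0–100) relative to controls.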

barnyardgrass [11] = test: Test D flooded paddy test; format: in vivo, Echinochloa crus-galli; settings: 250 g ai/ha, applied to paddy water, visual rating after 13 to 14 days, scale 0 to 100 (0 no effect, 100 complete control)
Summary of the method: as §2

soybean [12] = test: Test C postemergence; format: in vivo, Glycine max; settings: 10 days
Summary of the method: as §1

kochia [13] = test: Test C preemergence; format: in vivo, Bassia scoparia; settings: for Kochia plant response rating: preemergence; for Plant response rating, Kochia: Preemergence
Summary of the method: as §1

wheat [14] = test: Test C postemergence; format: in vivo, Triticum aestivum; settings: 10 days
Summary of the method: as §1

horseweed = test: Test C postemergence; format: in vivo, Erigeron canadensis; settings: 10 days
Summary of the method: as §1

ragweed [15] = test: Test C postemergence; format: in vivo, Ambrosia artemisiifolia; settings: 10 days
Summary of the method: as §1

corn [16] = test: Test C postemergence; format: in vivo, Zea mays; settings: 10 days
Summary of the method: as §1

ryegrass, Italian [17] = test: Test C preemergence; format: in vivo, Lolium multiflorum; settings: for Ryegrass, Italian plant response rating: preemergence; for Plant response rating, Ryegrass, Italian: Preemergence
Summary of the method: as §1

barnyardgrass [18] = test: Test C preemergence; format: in vivo, Echinochloa crusgalli; settings: for Barnyardgrass plant response rating: preemergence; for Plant response rating, Barnyardgrass: Preemergence
Summary of the method: as §1

rice = test: Test D flooded paddy test; format: in vivo, Oryza sativa; settings: 250 g ai/ha, applied to paddy water, visual rating after 13 to 14 days, scale 0 to 100 (0 no effect, 100 complete control)
Summary of the method: as §2

wheat [19] = test: Test C preemergence; format: in vivo, Triticum aestivum; settings: for Wheat plant response rating: preemergence; for Plant response rating, Wheat: Preemergence
Summary of the method: as §1

pigweed, palmer [20] = test: Test C preemergence; format: in vivo, Amaranthus palmeri; settings: for Pigweed, Palmer plant response rating: preemergence; for Plant response rating, Pigweed, Palmer: Preemergence
Summary of the method: as §1

blackgrass [21] = test: Test C postemergence; format: in vivo, Alopecurus myosuroides; settings: 10 days
Summary of the method: as §1

ragweed [22] = test: Test C preemergence; format: in vivo, Ambrosia artemisiifolia; settings: for Ragweed plant response rating: preemergence; for Plant response rating, Ragweed: Preemergence
Summary of the method: as §1

ducksalad = test: Test D flooded paddy test; format: in vivo, Heteranthera limosa; settings: 250 g ai/ha, applied to paddy water, visual rating after 13 to 14 days, scale 0 to 100 (0 no effect, 100 complete control)
Summary of the method: as §2

pigweed, palmer [23] = test: Test C postemergence; format: in vivo, Amaranthus palmeri; settings: 10 days
Summary of the method: as §1

[24] = 500 g ai/ha, 0 to 100 scale (0 no effect, 100 complete control)
[25] = 125 g ai/ha, 0 to 100 scale, 0 no effect, 100 complete control
[26] = 500 g ai/ha, postemergence, 0 to 100 scale (0 no effect, 100 complete control)
[27] = Postemergence, 125 g ai/ha, 0 to 100 scale (0 no effect, 100 complete control)
[28] = 500 g ai/ha, visual rating after 10 days, 0 to 100 scale (0 no effect, 100 complete control)
[29] = Test C, 125 g ai/ha, 0 to 100 scale (0 no effect, 100 complete control)
[30] = 125 g ai/ha, postemergence, 0 to 100 scale, 0 no effect, 100 complete control
[31] = Postemergence, 500 g ai/ha, visual 0 to 100 scale (0 no effect, 100 complete control)

Cc1ccc(-n2cnc(C3(C#N)CCC3)n2)cc1C(=O)N1C[C@H](C)Oc2c(Cl)cccc21 [Compound 402]
Blackgrass plant response rating (blackgrass [1]; [24]): 30
Plant response rating, Blackgrass (blackgrass [1]; [25]): 30
Corn plant response rating (corn [2]; [24]): 20
Plant response rating, Corn (corn [2]; [25]): 0
Plant response rating, Oat, Wild (oat, wild [3]; [26]): 20
Plant response rating, Oat, Wild (oat, wild [3]; [27]): 0
Oat, Wild plant response rating (oat, wild [4]; [24]): 40
Plant response rating, Oat, Wild (oat, wild [4]; [25]): 20
Soybean plant response rating (soybean [5]; [24]): 40
Plant response rating, Soybean (soybean [5]; [25]): 20
Plant response rating, Foxtail, Green (green foxtail [6]; [26]): 90
Plant response rating, Foxtail, Green (green foxtail [6]; [27]): 70
Plant response rating, Kochia (kochia [7]; [26]): 90
Plant response rating, Kochia (kochia [7]; [27]): 90
Plant response rating, Ryegrass, Italian (ryegrass, Italian [8]; [27]): 30
Plant response rating, Barnyardgrass (barnyardgrass [9]; [26]): 50
Plant response rating, Barnyardgrass (barnyardgrass [9]; [27]): 20
Foxtail, Green plant response rating (green foxtail [10]; [24]): 100
Plant response rating, Foxtail, Green (green foxtail [10]; [25]): 100
Plant response rating, Sedge, Umbrella (Flood) (sedge, umbrella): 25
Plant response rating, Barnyardgrass (Flood) (barnyardgrass [11]): 25
Plant response rating, Soybean (soybean [12]; [27]): 40
Kochia plant response rating (kochia [13]; [24]): 90
Plant response rating, Kochia (kochia [13]; [25]): 90
Plant response rating, Wheat (wheat [14]; [27]): 20
Plant response rating, Horseweed (horseweed; [26]): 70
Plant response rating, Horseweed (horseweed; [27]): 50
Plant response rating, Ragweed (ragweed [15]; [27]): 90
Plant response rating, Corn (corn [16]; [26]): 60
Plant response rating, Corn (corn [16]; [27]): 10
Ryegrass, Italian plant response rating (ryegrass, Italian [17]; [24]): 80
Plant response rating, Ryegrass, Italian (ryegrass, Italian [17]; [25]): 70
Barnyardgrass plant response rating (barnyardgrass [18]; [24]): 100
Plant response rating, Barnyardgrass (barnyardgrass [18]; [25]): 60
Plant response rating, Rice (Flood) (rice): 0
Wheat plant response rating (wheat [19]; [24]): 30
Plant response rating, Wheat (wheat [19]; [25]): 0
Pigweed, Palmer plant response rating (pigweed, palmer [20]; [24]): 100
Plant response rating, Pigweed, Palmer (pigweed, palmer [20]; [25]): 100
Plant response rating, Blackgrass (blackgrass [21]; [26]): 60
Plant response rating, Blackgrass (blackgrass [21]; [27]): 20
Ragweed plant response rating (ragweed [22]; [24]): 50
Plant response rating, Ragweed (ragweed [22]; [25]): 0
Plant response rating, Ducksalad (Flood) (ducksalad): 45
Plant response rating, Pigweed, Palmer (pigweed, palmer [23]; [26]): 100
Plant response rating, Pigweed, Palmer (pigweed, palmer [23]; [27]): 90

CCc1ncn(-c2ccc(OC)c(C(=O)N3C[C@H](C)Oc4c(C)cccc43)c2)n1 [Compound 211]
Plant response rating, Blackgrass (blackgrass [1]; [28]): 90
Blackgrass plant response rating (blackgrass [1]; [29]): 90
Plant response rating, Corn (corn [2]; [28]): 70
Corn plant response rating (corn [2]; [29]): 70
Plant response rating, Oat, Wild (oat, wild [3]; [30]): 70
Plant response rating, Oat, Wild (oat, wild [3]; [31]): 90
Plant response rating, Oat, Wild (oat, wild [4]; [28]): 90
Oat, Wild plant response rating (oat, wild [4]; [29]): 70
Plant response rating, Soybean (soybean [5]; [28]): 100
Soybean plant response rating (soybean [5]; [29]): 100
Plant response rating, Foxtail, Green (green foxtail [6]; [30]): 90
Plant response rating, Foxtail, Green (green foxtail [6]; [31]): 90
Plant response rating, Kochia (kochia [7]; [30]): 70
Plant response rating, Kochia (kochia [7]; [31]): 90
Plant response rating, Ryegrass, Italian (ryegrass, Italian [8]; [30]): 70
Plant response rating, Ryegrass, Italian (ryegrass, Italian [8]; [31]): 90
Plant response rating, Barnyardgrass (barnyardgrass [9]; [30]): 80
Plant response rating, Barnyardgrass (barnyardgrass [9]; [31]): 100
Plant response rating, Foxtail, Green (green foxtail [10]; [28]): 100
Foxtail, Green plant response rating (green foxtail [10]; [29]): 0
Plant response rating, Sedge, Umbrella (Flood) (sedge, umbrella): 100
Plant response rating, Barnyardgrass (Flood) (barnyardgrass [11]): 55
Plant response rating, Soybean (soybean [12]; [30]): 100
Plant response rating, Soybean (soybean [12]; [31]): 100
Plant response rating, Kochia (kochia [13]; [28]): 100
Kochia plant response rating (kochia [13]; [29]): 100
Plant response rating, Wheat (wheat [14]; [30]): 70
Plant response rating, Wheat (wheat [14]; [31]): 90
Plant response rating, Horseweed (horseweed; [30]): 80
Plant response rating, Horseweed (horseweed; [31]): 90
Plant response rating, Ragweed (ragweed [15]; [30]): 50
Plant response rating, Ragweed (ragweed [15]; [31]): 70
Plant response rating, Corn (corn [16]; [30]): 70
Plant response rating, Corn (corn [16]; [31]): 90
Plant response rating, Ryegrass, Italian (ryegrass, Italian [17]; [28]): 100
Ryegrass, Italian plant response rating (ryegrass, Italian [17]; [29]): 100
Plant response rating, Barnyardgrass (barnyardgrass [18]; [28]): 100
Barnyardgrass plant response rating (barnyardgrass [18]; [29]): 100
Plant response rating, Rice (Flood) (rice): 50
Plant response rating, Wheat (wheat [19]; [28]): 80
Wheat plant response rating (wheat [19]; [29]): 80
Plant response rating, Pigweed, Palmer (pigweed, palmer [20]; [28]): 100
Pigweed, Palmer plant response rating (pigweed, palmer [20]; [29]): 100
Plant response rating, Blackgrass (blackgrass [21]; [30]): 90
Plant response rating, Blackgrass (blackgrass [21]; [31]): 100
Plant response rating, Ragweed (ragweed [22]; [28]): 100
Ragweed plant response rating (ragweed [22]; [29]): 100
Plant response rating, Ducksalad (Flood) (ducksalad): 100
Plant response rating, Pigweed, Palmer (pigweed, palmer [23]; [30]): 90
Plant response rating, Pigweed, Palmer (pigweed, palmer [23]; [31]): 100
